From patent US20250136722A1, “CYTOTOXICITY TARGETING CHIMERAS” (GLAXOSMITHKLINE INTELLECTUAL PROPERTY DEVELOPMENT LIMITED, priority 2021, published 2025)
“And” between values parts separate entries of the source, which are not always exact repeats. Equal entries are not always repeated.

Legend:
[1] = molecular target: T1, CHOK1 cells engineered to overexpress human CCR2 (Homo sapiens, UniProt P41597); experiment: Antibody dependent cellular cytotoxicity (ADCC) reporter assay (Example 199); assay type: cell-based; details: with anti-cotinine antibody SEQ ID NO: 11/12; CHOK1-human CCR2 target cells, Jurkat FcγRIIIa NFAT-luciferase reporter cells; 12-18 hours; read-out: ADCC Reporter Assay pEC50 (converted)
T1 construct: expressed in transfected cells; host or cells: CHOK1 cells
Summary of the method: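 CHOK1-hCCR2 target cells are co-incubated for 12–18 h with Jurkat FcγRIIIa/NFAT-luciferase reporter cells, ARM compound (1 pM–10 μM) and anti-cotinine antibody with a DE-mutant human IgG1 Fc (0.01–200 μg/mL). Luminescence is expressed as signal:background against no-compound wells; EC50 comes from nonlinear fit and is reported as pEC50, averaged across runs.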

[2] = molecular target: Anti-cotinine antibody (SEQ ID NO: 11 / SEQ ID NO: 12, rabbit variable region with human IgG1 Fc domain); experiment: Binding of anti-cotinine antibody to ARM compounds by SPR, Biacore T200, 37° C. (Example 202); details: pH 7.4, rabbit variable region/human IgG1 Fc antibody captured on protein A
Summary of the method: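 Antibody captured on protein A chip. Compounds injected (3-fold, 5-point, top 200 nM) at 100 μL/min with 200 s association and 2000 s dissociation, at 37° C. in HEPES pH 7.4 buffer with 1% DMSO. Double-referenced data fit to 1:1 kinetics. Kd = koff/kon, reported as pKd, averaged over runs.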

pKd of Antibody for ARM Compound of Formula (I) [2]	Structure (SMILES)	EC50 [1]
9.0865	CC(C)N(C)[C@@H]1CC[C@H](N2CC[C@H](Nc3ncnc4ccc(C(F)(F)F)cc34)C2=O)[C@H](NC(=O)CCNC2CCC3(CC2)CCN(CCCNC(=O)[C@H]2CC(=O)N(C)[C@@H]2c2cccnc2)CC3)C1 [Example 138, (2S,3S)-N-(3-(9-((3-(((1R,2S,5R)-5-(Isopropyl(methyl)amino)-2-((S)-2-oxo-3-((6-(trifluoromethyl)quinazolin-4-yl)amino)pyrrolidin-1-yl)cyclohexyl)amino)-3-oxopropyl)amino)-3-azaspiro[5.5]undecan-3-yl)propyl)-1-methyl-5-oxo-2-(pyridin-3-yl)pyrrolidine-3-carboxamide]	3.98 nM
9.275	CC(C)N(C)[C@@H]1CC[C@H](N2CC[C@H](Nc3ncnc4ccc(C(F)(F)F)cc34)C2=O)[C@H](NC(=O)COCCNC(=O)COCCOCCNC(=O)CCNC(=O)[C@H]2CC(=O)N(C)[C@@H]2c2cccnc2)C1 [Example 143, (2S,3S)-N-(1-(((1R,2S,5R)-5-(Isopropyl(methyl)amino)-2-((S)-2-oxo-3-((6-(trifluoromethyl)quinazolin-4-yl)amino)pyrrolidin-1-yl)cyclohexyl)amino)-1,7,16-trioxo-3,9,12-trioxa-6,15-diazaoctadecan-18-yl)-1-methyl-5-oxo-2-(pyridin-3-yl)pyrrolidine-3-carboxamide]	3.24 nM
9.0755	CC(C)N(C)[C@@H]1CC[C@H](N2CC[C@H](Nc3ncnc4ccc(C(F)(F)F)cc34)C2=O)[C@H](NC(=O)COCCNC(=O)COCCNC(=O)CCOCCNC(=O)[C@H]2CC(=O)N(C)[C@@H]2c2cccnc2)C1 [Example 151, (2S,3S)-N-(1-(((1R,2S,5R)-5-(Isopropyl(methyl)amino)-2-((S)-2-oxo-3-((6-(trifluoromethyl)quinazolin-4-yl)amino)pyrrolidin-1-yl)cyclohexyl)amino)-1,7,13-trioxo-3,9,16-trioxa-6,12-diazaoctadecan-18-yl)-1-methyl-5-oxo-2-(pyridin-3-yl)pyrrolidine-3-carboxamide]	3.03 nM
10.135	CC(C)N(C)[C@@H]1CC[C@H](N2CC[C@H](Nc3ncnc4ccc(C(F)(F)F)cc34)C2=O)[C@H](NC(=O)C2CCN(C3CCN(C(=O)CCCCCCCCCNC(=O)[C@@H]4CC(=O)N(C)[C@H]4c4cccnc4)CC3)CC2)C1 [Example 157]	0.2 nM
9.07	CC(C)N(C)[C@@H]1CC[C@H](N2CC[C@H](Nc3ncnc4ccc(C(F)(F)F)cc34)C2=O)[C@H](NC(=O)CCOCCNC(=O)COCCNC(=O)CCOCCNC(=O)[C@H]2CC(=O)N(C)[C@@H]2c2cccnc2)C1 [Example 163, (2S,3S)-N-(19-(((1R,2S,5R)-5-(Isopropyl(methyl)amino)-2-((S)-2-oxo-3-((6-(trifluoromethyl)quinazolin-4-yl)amino)pyrrolidin-1-yl)cyclohexyl)amino)-6,12,19-trioxo-3,10,16-trioxa-7,13-diazanonadecyl)-1-methyl-5-oxo-2-(pyridin-3-yl)pyrrolidine-3-carboxamide]	0.631 nM
9.3225	CC(C)N(C)[C@@H]1CC[C@H](N2CC[C@H](Nc3ncnc4ccc(C(F)(F)F)cc34)C2=O)[C@H](NC(=O)CCCNc2c(NCCOCCOCCOCCOCCNC(=O)[C@H]3CC(=O)N(C)[C@@H]3c3cccnc3)c(=O)c2=O)C1 [Example 164, (2S,3S)-N-(14-((2-((4-(((1R,2S,5R)-5-(Isopropyl(methyl)amino)-2-((S)-2-oxo-3-((6-(trifluoromethyl)quinazolin-4-yl)amino)pyrrolidin-1-yl)cyclohexyl)amino)-4-oxobutyl)amino)-3,4-dioxocyclobut-1-en-1-yl)amino)-3,6,9,12-tetraoxatetradecyl)-1-methyl-5-oxo-2-(pyridin-3-yl)pyrrolidine-3-carboxamide]	1.35 nM

The next lines start with the compound.

Structure (SMILES)	pKd of Antibody for ARM Compound of Formula (I) [2]	EC50 [1]
CC(C)N(C)[C@@H]1CC[C@H](N2CC[C@H](Nc3ncnc4ccc(C(F)(F)F)cc34)C2=O)[C@H](NC(=O)[C@H]2CC[C@@H](NC(=O)CCO[C@H]3CC[C@H](OCCNC(=O)[C@H]4CC(=O)N(C)[C@@H]4c4cccnc4)CC3)CC2)C1 [Example 112, (2S,3S)-N-(2-(((1S,4S)-4-(3-(((1S,4S)-4-(((1R,2S,5R)-5-(Isopropyl(methyl)amino)-2-((S)-2-oxo-3-((6-(trifluoromethyl)quinazolin-4-yl)amino)pyrrolidin-1-yl)cyclohexyl)carbamoyl)cyclohexyl)amino)-3-oxopropoxy)cyclohexyl)oxy)ethyl)-1-methyl-5-oxo-2-(pyridin-3-yl)pyrrolidine-3-carboxamide]	9.343	0.398 nM
CC(C)N(C)[C@@H]1CC[C@H](N2CC[C@H](Nc3ncnc4ccc(C(F)(F)F)cc34)C2=O)[C@H](NC(=O)[C@H]2CC[C@H](NC(=O)CCO[C@H]3CC[C@H](OCCNC(=O)[C@H]4CC(=O)N(C)[C@@H]4c4cccnc4)CC3)CC2)C1 [Example 113]	9.767	4.82 nM and 8.17 nM
CC(C)N(C)[C@@H]1CC[C@H](N2CC[C@H](Nc3ncnc4ccc(C(F)(F)F)cc34)C2=O)[C@H](NC(=O)[C@H]2C[C@@H](NC(=O)CCO[C@H]3CC[C@H](OCCNC(=O)[C@H]4CC(=O)N(C)[C@@H]4c4cccnc4)CC3)C2)C1 [Example 115]	9.363	0.408 nM and 0.305 nM
CC(C)N(C)[C@@H]1CC[C@H](N2CC[C@H](Nc3ncnc4ccc(C(F)(F)F)cc34)C2=O)[C@H](NC(=O)CCOCCOCCNC(=O)NCCOCCOCCNC(=O)[C@H]2CC(=O)N(C)[C@@H]2c2cccnc2)C1 [Example 119, (2S,3S)-N-(20-(((1R,2S,5R)-5-(Isopropyl(methyl)amino)-2-((S)-2-oxo-3-((6-(trifluoromethyl)quinazolin-4-yl)amino)pyrrolidin-1-yl)cyclohexyl)amino)-10,20-dioxo-3,6,14,17-tetraoxa-9,11-diazaicosyl)-1-methyl-5-oxo-2-(pyridin-3-yl)pyrrolidine-3-carboxamide]	9.1735	1.58 nM
CC(C)N(C)[C@@H]1CC[C@H](N2CC[C@H](Nc3ncnc4ccc(C(F)(F)F)cc34)C2=O)[C@H](NC(=O)[C@H]2CC[C@H](NC(=O)CCCOCCCCOCCNC(=O)[C@H]3CC(=O)N(C)[C@@H]3c3cccnc3)CC2)C1 [Example 121, (2S,3S)-N-(2-(4-(4-(((1R,4r)-4-(((1R,2S,5R)-5-(Isopropyl(methyl)amino)-2-((S)-2-oxo-3-((6-(trifluoromethyl)quinazolin-4-yl)amino)pyrrolidin-1-yl)cyclohexyl)carbamoyl)cyclohexyl)amino)-4-oxobutoxy)butoxy)ethyl)-1-methyl-5-oxo-2-(pyridin-3-yl)pyrrolidine-3-carboxamide]	9.332	5.28 nM
